ChEMBL document CHEMBL5505960, “Synthesis and evaluation of butylphthalide-scutellarein hybrids as multifunctional agents for the treatment of Alzheimer's disease” (Eur J Med Chem, 2024)
Activity calls are given as the source filed them. The rule behind the calls is not given here.

Assays:
[1] = Antioxidant activity assessed as trolox equivalent of ORAC radical scavenging activity by ORAC-FL assay relative to trolox; assay type: functional
[2] = molecular target: Amyloid-beta precursor protein (Homo sapiens) (UniProt P05067); assay: Inhibition of amyloid beta (1 to 42) (unknown origin) self induced aggregation at 25 uM by ThT fluorescence assay relative to control
Amyloid-beta precursor protein (Homo sapiens), sequence (P05067 whole entry): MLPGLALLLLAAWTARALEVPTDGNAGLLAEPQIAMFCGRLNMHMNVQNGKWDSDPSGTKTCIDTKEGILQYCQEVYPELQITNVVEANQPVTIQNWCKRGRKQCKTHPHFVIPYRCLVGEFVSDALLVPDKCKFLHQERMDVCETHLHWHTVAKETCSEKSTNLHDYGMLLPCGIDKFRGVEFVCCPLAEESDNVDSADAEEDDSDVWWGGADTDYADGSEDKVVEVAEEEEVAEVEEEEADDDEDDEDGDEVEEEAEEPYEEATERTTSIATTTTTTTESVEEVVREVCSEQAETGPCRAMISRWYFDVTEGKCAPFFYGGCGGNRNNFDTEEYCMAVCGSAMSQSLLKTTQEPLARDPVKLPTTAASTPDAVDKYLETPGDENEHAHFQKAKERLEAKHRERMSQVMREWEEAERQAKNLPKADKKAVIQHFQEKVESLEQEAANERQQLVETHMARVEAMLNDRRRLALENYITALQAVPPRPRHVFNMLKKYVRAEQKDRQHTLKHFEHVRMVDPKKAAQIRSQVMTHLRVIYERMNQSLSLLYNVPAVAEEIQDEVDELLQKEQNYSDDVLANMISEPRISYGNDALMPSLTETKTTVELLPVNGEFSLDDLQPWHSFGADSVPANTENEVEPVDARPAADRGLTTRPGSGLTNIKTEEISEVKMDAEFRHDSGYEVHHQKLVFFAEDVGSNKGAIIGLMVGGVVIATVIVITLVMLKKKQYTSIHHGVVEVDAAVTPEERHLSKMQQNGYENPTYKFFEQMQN

[3] = molecular target: Amyloid-beta precursor protein (Homo sapiens) (UniProt P05067); assay: Inhibition of Cu2+ induced amyloid beta (1 to 42)(unknown origin) fibrillation at 25 uM by ThT fluorescence assay relative to control
[4] = molecular target: Amyloid-beta precursor protein (Homo sapiens) (UniProt P05067); assay: Disaggregation of self-induced amyloid beta (1 to 42) (unknown origin) fibrils at 25 uM by ThT fluorescence assay relative to control
[5] = tested on: HT-22; assay: Neuroprotective activity against amyloid beta (1 to 42) induced cell injury in mouse HT-22 cells assessed as cell viability at 50 uM incubated for 24 hrs by MTT assay; assay type: functional, cell-based
[6] = tested on: HT-22; assay: Neuroprotective activity against amyloid beta (1 to 42)-induced injury in mouse HT-22 cells assessed as reversal of reduced cell synapse length at 2.5 to 10 uM measured after 24 hrs […]; assay type: functional, cell-based; conditions: dose 2.5-10 µM
[7] = tested on: HT-22; assay: Neuroprotective activity against amyloid beta (1 to 42)-induced injury in mouse HT-22 cells assessed as increase in cell viability at 2.5 uM incubated for 24 hrs by MTT assay relative to control; assay type: functional
[8] = tested on: BV-2; assay: Cytotoxicity against LPS-induced mouse BV-2 cells assessed as cell viability at 0.5 to 10 uM incubated for 24 hrs by MTT assay; assay type: toxicity, cell-based; conditions: bv-2, 24 h, dose 0.5-10 µM
[9] = tested on: BV-2; assay: Antineuroinflammatory activity in LPS-induced mouse BV-2 cells assessed as inhibition of ROS production at 10 uM preincubated for 30 mins followed by LPS stimulation and measured after 8 hrs by DCFH-DA staining based analysis; assay type: functional, cell-based; conditions: time 8.5 hrs
[10] = tested on: BV-2; assay: Antineuroinflammatory activity in LPS-induced mouse BV-2 cells assessed as inhibition of NO release at 10 uM preincubated for 30 mins followed by LPS stimulation and measured after 24 hrs relative to control; assay type: functional; set-up: scale not given: the % may be the effect or the level left; conditions: time 24.5 hrs
[11] = tested on: BV-2; assay: Antineuroinflammatory activity in LPS-induced mouse BV-2 cells assessed as inhibition of TNF-alpha release at 0.5 uM preincubated for 30 mins followed by LPS stimulation and measured after 24 hrs relative to control; assay type: functional; set-up: scale not given: the % may be the effect or the level left; conditions: time 24.5 hrs
[12] = tested on: BV-2; assay: Antineuroinflammatory activity in LPS-induced mouse BV-2 cells assessed as inhibition of TNF-alpha release at 10 uM preincubated for 30 mins followed by LPS stimulation and measured after 24 hrs relative to control; assay type: functional; set-up: scale not given: the % may be the effect or the level left; conditions: time 24.5 hrs
[13] = tested on: BV-2; assay: Antineuroinflammatory activity in LPS-induced mouse BV-2 cells assessed as inhibition of IL-1 beta release at 2.5 uM preincubated for 30 mins followed by LPS stimulation and measured after 24 hrs relative to control; assay type: functional; set-up: scale not given: the % may be the effect or the level left; conditions: time 24.5 hrs
[14] = tested on: BV-2; assay: Antineuroinflammatory activity in LPS-induced mouse BV-2 cells assessed as inhibition of IL-1 beta release at 10 uM preincubated for 30 mins followed by LPS stimulation and measured after 24 hrs relative to control; assay type: functional; set-up: scale not given: the % may be the effect or the level left; conditions: time 24.5 hrs
[15] = tested on: BV-2; assay: Antineuroinflammatory activity in LPS-induced mouse BV-2 cells assessed as inhibition of IL-1 beta release preincubated for 30 mins followed by LPS stimulation and measured after 24 hrs; assay type: functional, cell-based; conditions: dose 0.5-10 µM, time 24.5 hrs
[16] = Half life in Balb/C mouse plasma at 30 mg/kg, IG measured upto 8 hrs by LC-MS analysis; assay type: ADME, organism-based; conditions: po
[17] = Cmax in Balb/C mouse plasma at 30 mg/kg, IG measured upto 8 hrs by LC-MS analysis; assay type: ADME, organism-based; conditions: po
[18] = AUC (0 to t) in Balb/C mouse plasma at 30 mg/kg, IG measured upto 8 hrs by LC-MS analysis; assay type: ADME, organism-based; conditions: po
[19] = Cmax in Balb/C mouse brain at 30 mg/kg, IG measured upto 8 hrs by LC-MS analysis; assay type: ADME, organism-based; conditions: po
[20] = AUC (0 to t) in Balb/C mouse brain at 30 mg/kg, IG measured upto 8 hrs by LC-MS analysis; assay type: ADME, organism-based; conditions: in vivo, po
[21] = Ratio of AUC (0 to t) in Balb/C mouse brain at 30 mg/kg, IG measured upto 8 hrs by LC-MS analysis; assay type: ADME, organism-based; conditions: po
[22] = tested on: Mus musculus; assay: Neuroprotective activity in C57BL/6 mouse assessed as amelioration of sodium nitrite induced memory impairement at 1.1 to 9.9 mg/kg, IG administered daily for 7 days; assay type: functional, organism-based; conditions: dose 1.1-9.9 mg/kg, time 7.0 day
[23] = tested on: Mus musculus; assay: Neuroprotective activity in Sodium nitrite induced cognition impairement in C57BL/6 mouse model assessed as decrease in MAD level administered daily as IG for 7 days; assay type: functional, organism-based; conditions: dose 1.1-9.9 mg/kg, time 7.0 day
[24] = tested on: Mus musculus; assay: Neuroprotective activity in Sodium nitrite induced cognition impairement in C57BL/6 mouse model assessed as increase in SOD activity administered daily as IG for 7 days; assay type: functional, organism-based; conditions: dose 1.1-9.9 mg/kg, time 7.0 day
[25] = tested on: Mus musculus; assay: Neuroprotective activity in Sodium nitrite induced cognition impairement in C57BL/6 mouse model assessed as increase in SOD activity at 9.9 mg/kg, IG administered daily for 7 days; assay type: functional; conditions: time 7 day
[26] = tested on: Mus musculus; assay: Neuroprotective activity against Abeta42 induced cognition impairement in AD mouse model assessed as improvement in latency time at 1.1 to 9.9 mg/kg, IG administered daily for 7 days by passive avoidance test; assay type: functional, organism-based; conditions: dose 1.1-9.9 mg/kg, time 7.0 day
[27] = tested on: Mus musculus; assay: Neuroprotective activity against Abeta42 induced cognition impairement in AD mouse model assessed as reduction in number of error at 1.1 to 9.9 mg/kg, IG administered daily for 7 days by passive avoidance test; assay type: functional, organism-based; conditions: dose 1.1-9.9 mg/kg, time 7.0 day
[28] = tested on: Mus musculus; assay: Neuroprotective activity against Abeta42 induced cognition impairement in AD mouse model assessed as alleviation of learning deficit administered daily as IG for 7 days by passive avoidance test; assay type: functional, organism-based; conditions: time 7.0 day
[29] = molecular target: Amyloid-beta precursor protein (Homo sapiens) (UniProt P05067); assay: Inhibition of amyloid beta (1 to 42) (unknown origin) fibrillation assessed as reversal of A-beta 1-42 induced morphological changes at 25 uM measured after 24 hrs by TEM analysis
[30] = molecular target: Amyloid-beta precursor protein (Homo sapiens) (UniProt P05067); assay: Inhibition of amyloid beta (1 to 42) (unknown origin) fibrillation assessed as short amyloid beta fibrils at 25 uM measured after 24 hrs by TEM analysis
[31] = molecular target: Amyloid-beta precursor protein (Homo sapiens) (UniProt P05067); assay: Inhibition of amyloid beta (1 to 42) (unknown origin) fibrillation assessed as decrease in thickness of amyloid beta fibrils at 25 uM measured after 24 hrs by TEM analysis
[32] = molecular target: Amyloid-beta precursor protein (Homo sapiens) (UniProt P05067); assay: Inhibition of amyloid beta (1 to 42) (unknown origin) fibrillation assessed as reduction in Cu2+ induced shorter fibrils at 25 uM measured after 24 hrs by TEM analysis
[33] = Metal chelating activity assessed as compound-Fe2+ complex formation by measuring bathochromic shift at 301 to 335nm in the presence of FeSO4 by UV-Visible spectrophotometric analysis
[34] = Metal chelating activity assessed as compound-Zn2+ complex formation by measuring bathochromic shift at 301 to 345nm in the presence of ZnCl2 by UV-Visible spectrophotometric analysis
[35] = Metal chelating activity assessed as compound-Cu2+ complex formation by measuring hyperchromic shift in the presence of CuCl2 by UV-Visible spectrophotometric analysis
[36] = Metal chelating activity assessed as compound-Al3+ complex formation by measuring hyperchromic shift in the presence of AlCl3 by UV-Visible spectrophotometric analysis

`CCCCCC1OC(=O)c2c1cc(OC)c(O)c2O` (stereo unspecified) showed an Activity [1] of 2.2, an inhibition [2] of 90.2% and an inhibition [3] of 35.4%. For the same molecule, the Activity [4] was 42.5%, the Activity [5] was “Active” and the Activity [6] was “Active”. For the same molecule, the Activity [7] was 76.3%, the Activity [8] was “Non-Toxic” and the Activity [9] was “Active”. It also gave an Activity [10] of 77.3%, an Activity [11] of 20% and an Activity [12] of 75.8%. For the same molecule, the Activity [13] was 49.2%, the Activity [14] was 62.9% and the Activity [15] was “Dose-Dependent Effect”. It also gave a half-life [16] of 51 min, a Cmax [17] of 879 ng/mL and an AUC(0-t) at 8 h [18] of 852 ng·h/mL. It also gave a Cmax [19] of 337 ng/mL, an AUCt [20] of 681.3 ng·h/g and a Kp at 8 h [21] of 0.8. For the same molecule, the Activity [22] was “Active”, the Activity [23] was “Dose-Dependent Effect” and the Activity [24] was “Dose-Dependent Effect”. The Activity [25] was 193.1 U/mg, the Activity [26] was “Active” and the Activity [27] was “Active”. The Activity [28] was “Dose-Dependent Effect”, the inhibition [29] was “Active” and the inhibition [30] was “Active”. The inhibition [31] was “Active”, the inhibition [32] was “Active” and the Activity [33] was “Active”. The Activity [34] was “Active”, the Activity [35] was “Active” and the Activity [36] was “Active”.
